Measured values from US9527847B2, “Treatment of lupus, fibrotic conditions, and inflammatory myopathies and other disorders using PI3 kinase inhibitors” (INFINITY PHARMACEUTICALS, INC., priority 2012, dated 2016).
pEC50: −log10 of the molar value.

Tests used:
B cell proliferation = B cell proliferation EC50 (Table 3); assay type: cell-based; conditions: in vitro
PI3K-δ = PI3K-δ (Homo sapiens, UniProt O00329); assay: One exemplary assay, PI3K-δ activity; assay type: biochemical; conditions: overall, several assays
PI3K-δ, sequence (O00329 whole entry, species assumed): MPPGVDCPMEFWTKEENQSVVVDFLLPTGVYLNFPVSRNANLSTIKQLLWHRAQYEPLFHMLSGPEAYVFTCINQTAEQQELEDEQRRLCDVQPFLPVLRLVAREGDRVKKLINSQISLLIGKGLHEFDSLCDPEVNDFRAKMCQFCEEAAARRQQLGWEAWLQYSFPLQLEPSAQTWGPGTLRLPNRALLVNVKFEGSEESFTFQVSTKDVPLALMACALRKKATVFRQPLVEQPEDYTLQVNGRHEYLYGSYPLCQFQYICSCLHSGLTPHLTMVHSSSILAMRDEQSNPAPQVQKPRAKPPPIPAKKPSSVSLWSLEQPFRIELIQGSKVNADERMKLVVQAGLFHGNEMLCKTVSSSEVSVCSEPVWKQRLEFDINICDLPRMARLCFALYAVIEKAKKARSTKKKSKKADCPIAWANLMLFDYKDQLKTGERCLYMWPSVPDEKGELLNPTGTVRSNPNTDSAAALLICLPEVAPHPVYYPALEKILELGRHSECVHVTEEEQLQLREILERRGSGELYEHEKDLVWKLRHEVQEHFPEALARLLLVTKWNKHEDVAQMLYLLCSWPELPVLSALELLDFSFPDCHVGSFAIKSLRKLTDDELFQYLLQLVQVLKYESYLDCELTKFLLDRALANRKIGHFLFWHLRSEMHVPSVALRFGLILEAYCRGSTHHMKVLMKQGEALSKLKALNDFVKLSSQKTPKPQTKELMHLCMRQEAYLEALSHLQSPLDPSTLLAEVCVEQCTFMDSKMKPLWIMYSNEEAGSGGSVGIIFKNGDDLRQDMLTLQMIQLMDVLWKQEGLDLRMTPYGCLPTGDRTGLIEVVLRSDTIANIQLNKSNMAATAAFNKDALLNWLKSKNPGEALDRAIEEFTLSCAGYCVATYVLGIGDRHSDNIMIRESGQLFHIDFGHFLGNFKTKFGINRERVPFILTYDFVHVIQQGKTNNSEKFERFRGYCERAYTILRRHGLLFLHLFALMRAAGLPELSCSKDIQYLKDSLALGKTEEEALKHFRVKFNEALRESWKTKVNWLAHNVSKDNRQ
PI3K-δ, sequence (P27986 whole entry partner, species assumed): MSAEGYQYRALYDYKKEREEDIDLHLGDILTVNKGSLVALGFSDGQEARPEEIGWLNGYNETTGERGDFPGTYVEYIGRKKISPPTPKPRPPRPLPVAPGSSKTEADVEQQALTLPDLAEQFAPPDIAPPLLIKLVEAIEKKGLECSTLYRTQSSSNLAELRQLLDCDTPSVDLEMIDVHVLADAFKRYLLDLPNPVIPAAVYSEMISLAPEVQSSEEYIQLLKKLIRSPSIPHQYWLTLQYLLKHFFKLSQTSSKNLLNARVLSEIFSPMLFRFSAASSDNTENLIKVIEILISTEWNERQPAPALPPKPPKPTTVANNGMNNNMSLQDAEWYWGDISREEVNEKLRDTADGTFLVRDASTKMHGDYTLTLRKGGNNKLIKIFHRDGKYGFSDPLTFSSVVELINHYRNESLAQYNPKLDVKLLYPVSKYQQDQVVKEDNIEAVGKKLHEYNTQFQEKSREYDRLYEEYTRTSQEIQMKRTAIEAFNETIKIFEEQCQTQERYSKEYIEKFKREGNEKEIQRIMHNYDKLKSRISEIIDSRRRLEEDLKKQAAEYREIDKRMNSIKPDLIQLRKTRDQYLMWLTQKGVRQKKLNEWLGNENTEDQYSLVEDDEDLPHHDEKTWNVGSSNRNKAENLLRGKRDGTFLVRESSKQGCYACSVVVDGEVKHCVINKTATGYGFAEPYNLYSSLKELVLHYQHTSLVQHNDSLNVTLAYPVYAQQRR

[1] = test system: Murine B-cell proliferation; assay: Murine B-cell proliferation; assay type: cell-based; conditions: Mus musculus
[2] = test system: Human B-cell proliferation; assay: Human B-cell proliferation; assay type: cell-based
[3] = test system: Human T-cell proliferation; assay: Human T-cell proliferation; assay type: cell-based
[4] = test system: PI3K-δ specific basophil activation; assay: Anti-fCER1 BAT (delta), basophil activation in human whole blood; assay type: cell-based; conditions: Table 5
[5] = test system: TL2/TLR6 (PAM2CSK4 induced cytokines); assay: PAM2CSK4 induced cytokine production in PBMCs; assay type: cell-based, human
Protocol: (§1) These experiments were conducted using PBMCs.

R848 induced cytokines = assay: R848 induced cytokine production in PBMCs; assay type: cell-based, human
Protocol: as §1

LPS induced cytokines = assay: LPS induced cytokine production in PBMCs; assay type: cell-based, human
Protocol: as §1

NZBWF1/J mice = assay: Murine NZB/W F1 lupus model; assay type: in vivo, mouse; conditions: vs vehicle; for Glomerulonephritis score reduction: kidney histopathology; for Plasma anti-dsDNA IgG levels: days 49, 98, 140 (age 30, 37, 43 wk)
Description: Female NZBWF1/J mice (n=60) that were 8 weeks old on arrival and weighed approximately 35-51 grams (mean 42 g) at enrollment (mouse age approx. 23 weeks) were obtained from The Jackson Laboratory, Bar Harbor, Me. (stock number 100008). Animals were identified by a distinct number of ink marks at the base of the tail delineating animal number. After enrollment, all cages were labeled with protocol number, group number, and animal numbers.
Mice were terminated at age 43 weeks (day 140).
All dose solutions were prepared to deliver in 10 ml/kg (0.3 ml/30 g mouse).
Body weights were measured and recorded prior to study initiation for randomization, on the first day of dosing prior to dosing, and weekly throughout the study. Body weights were also recorded at scheduled termination points and as needed if test subjects appeared to decrease in weight by visual inspection. The animals were observed daily for significant clinical signs, morbidity and mortality.
Urine from each animal was tested weekly (beginning at mouse age 23 weeks) for proteinuria using Clinitech Multistick test strips (Bayer).
At necropsy, animals were anesthetized with isoflorane and bled via cardiac puncture for serum (for clinical chemistry analysis) and plasma (for Anti-dsDNA ELISA and PK). Terminal urine was collected and assessed. Spleens and kidneys (paired) were collected, weighed, and placed in 10% NBF. Serum obtained at necropsy was sent to Antech Diagnostics for analysis. Terminal plasma samples were split with half being used for Anti-dsDNA ELISA and the other half being shipped to the sponsor.
Anti-dsDNA IgG analysis was performed on days 0, 49, 98, and 140 (mouse age 23, 30, 37, and 43 weeks). Anti-dsDNA IgG levels were determined using an Anti-dsDNA IgG ELISA Kit (Alpha Diagnostic, kit #5120, lot #90903K4) following manufacturer's instructions.
Blood samples for clinical chemistry evaluation were collected at termination via cardiac puncture from Isoflurane anesthetized animals into serum separator microtainer tubes. Serum was sent to Antech Diagnostics for analysis.
The following parameters were measured: Albumin (ALB), Albumin: Globulin ratio (A/G), Alkaline phosphatase (ALK), Alanine aminotransferase (ALT), Aspartate aminotransferase (AST), Calcium (CA), Magnesium (Mg), Phosphorous (P), Globulin (GLOB), Electrolytes (Sodium (Na), Potassium (K), Chloride (Cl)), Gamma glutamyltransferase (GGT), Total bilirubin (TBILI), Amylase (AMY), Lipase (LIP), Osmolality, Triglycerides (TRIG), Total cholesterol (CHOL), Urea nitrogen (BUN), Creatinine (CREAT), Glucose (GLU), Total protein (TP), and Creatinine kinase (CPK).
Histopathologic evaluation was performed on kidneys. Kidneys from all surviving animals were examined microscopically by a board certified veterinary pathologist and observations were entered into a computer-assisted data retrieval system. Kidney sections were stained with Masson's Trichrome, or Hematoxylin and Eosin. To maintain blinding of the analysis, slides were labeled with the animal number with no reference to treatment group.
Kidneys were scored according to the following system (developed by Chan O, Madaio M P, Shlomchik M J. The roles of B cells in MRL/lpr murine lupus. Annals New York Academy of Sciences, 1997; 815:75-82), modified to suit the lesion severity.
• 0=Normal. • 1=Focal or multifocal, minimal to mild, early proliferative. • 2=Multifocal mild to moderate or mild diffuse proliferative. • 3=Diffuse moderate proliferative with or without multifocal severe areas. • 4=Marked diffuse proliferative, with crescents/sclerosis, multifocal protein casts present. • 5=Severe diffuse proliferative, with crescents/sclerosis, diffuse protein casts present. […]

[6] = serum at termination, Compound 292 (1, 5, 10 mg/kg), Dex 2 mg/kg

SMILES: C[C@H](Nc1ncnc2[nH]cnc12)c1cc2cccc(Cl)c2c(=O)n1-c1ccccc1 [Compound 292]
- pEC50 (B cell proliferation): > 7.00
- PI3K-δ inhibited at lower dose compared to PI3K-γ, PI3K-β or PI3K-α (PI3K-δ): at least 10 fold
- pEC50 [1]: 9.30
- pEC50 [2]: 9.30
- pEC50 [3]: 8.02
- pEC50 [4]: 7.11
- PAM2CSK4 induced IL-1 production [5]: Inhibited
- PAM2CSK4 induced IL-6 production [5]: Inhibited
- PAM2CSK4 induced IL-8 production [5]: Inhibited
- PAM2CSK4 induced TNF-α production [5]: Inhibited
- R848 induced IFN-α (R848 induced cytokines): did not detectably affect
- R848 induced IL-1 (R848 induced cytokines): slightly inhibited
- R848 induced IL-6 (R848 induced cytokines): did not detectably affect
- R848 induced IL-8 (R848 induced cytokines): did not detectably affect
- R848 induced TNF-α (R848 induced cytokines): did not detectably affect
- LPS induced IL-1 production (LPS induced cytokines): enhanced
- LPS induced IL-6 production (LPS induced cytokines): enhanced
- LPS induced IL-8 production (LPS induced cytokines): did not detectably affect
- LPS induced TNF-α production (LPS induced cytokines): enhanced
- Glomerulonephritis score reduction (NZBWF1/J mice; 1 mg/kg PO QD): 68%
- Urine protein levels (NZBWF1/J mice; 1 mg/kg PO QD, p<0.05 at mouse age 43 wk): significantly reduced
- Perivascular inflammation score reduction (NZBWF1/J mice; 1 mg/kg PO QD): 79%
- Protein cast severity reduction (NZBWF1/J mice; 1 mg/kg PO QD): 100%
- Spleen weight reduction (NZBWF1/J mice; 1 mg/kg PO QD): 39%
- Summed histopathology scores reduction (NZBWF1/J mice; 1 mg/kg PO QD): 67%
- Plasma anti-dsDNA IgG levels (NZBWF1/J mice; 5 mg/kg PO QD): significantly reduced
- Glomerulonephritis score reduction (NZBWF1/J mice; 5 mg/kg PO QD): 89%
- Urine protein levels (NZBWF1/J mice; 5 mg/kg PO QD, p<0.05 at mouse age 43 wk): significantly reduced
- Interstitial nephritis score reduction (NZBWF1/J mice; 5 mg/kg PO QD): 54%
- Perivascular inflammation score reduction (NZBWF1/J mice; 5 mg/kg PO QD): 90%
- Protein cast severity reduction (NZBWF1/J mice; 5 mg/kg PO QD): 100%
- Spleen weight reduction (NZBWF1/J mice; 5 mg/kg PO QD): 54%
- Summed histopathology scores reduction (NZBWF1/J mice; 5 mg/kg PO QD): 81%
- Plasma anti-dsDNA IgG levels (NZBWF1/J mice; 10 mg/kg PO QD): significantly reduced
- Glomerulonephritis score reduction (NZBWF1/J mice; 10 mg/kg PO QD): 100%
- Urine protein levels (NZBWF1/J mice; 10 mg/kg PO QD, p<0.05 at mouse age 42-43 wk): significantly reduced
- Interstitial nephritis score reduction (NZBWF1/J mice; 10 mg/kg PO QD): 67%
- Perivascular inflammation score reduction (NZBWF1/J mice; 10 mg/kg PO QD): 100%
- Protein cast severity reduction (NZBWF1/J mice; 10 mg/kg PO QD): 100%
- Spleen weight reduction (NZBWF1/J mice; 10 mg/kg PO QD): 55%
- Summed histopathology scores reduction (NZBWF1/J mice; 10 mg/kg PO QD): 91%
- Body weight loss (percent change from baseline) (NZBWF1/J mice; 1, 5 or 10 mg/kg PO QD 20 wk, over time): did not differ significantly
- Kidney weight (NZBWF1/J mice; 1, 5 or 10 mg/kg PO QD): did not differ significantly
- % of animals with proteinuria (urine protein levels >300 mg/dl) (NZBWF1/J mice; all doses (1, 5, or 10 mg/kg), animal age 43 weeks): significantly reduced
- Sodium (Na) (NZBWF1/J mice; serum at termination, Compound 292 1 mg/kg): significantly increased
- Amylase (AMY) (NZBWF1/J mice; serum at termination, Compound 292 5 mg/kg, Dex 2 mg/kg): significantly reduced
- Magnesium (Mg) (NZBWF1/J mice; serum at termination, Compound 292 10 mg/kg, Dex 2 mg/kg): significantly increased
- Aspartate aminotransferase (AST) (NZBWF1/J mice; serum at termination, Compound 292 (1, 5, 10 mg/kg)): significantly reduced
- Albumin (ALB) (NZBWF1/J mice; [6]): significantly increased
- Blood urea nitrogen (BUN) (NZBWF1/J mice; [6]): significantly reduced
- Calcium (CA) (NZBWF1/J mice; [6]): significantly increased
- Creatine kinase (CPK) (NZBWF1/J mice; [6]): significantly reduced
- Globulin (GLOB) (NZBWF1/J mice; [6]): significantly reduced
- Triglycerides (TRIG) (NZBWF1/J mice; [6]): significantly reduced
